In publication PMC4196226 (mBio, 2014):
≈ marks a conversion by molar mass, not a printed value.

Legend:
Assay type in all cases: cell-based
A. baumannii = test: MIC assay; conditions: Acinetobacter baumannii
P. aeruginosa = test: microbe, parasite or virus in culture; conditions: Pseudomonas aeruginosa
K. pneumoniae = test: microbe, parasite or virus in culture; conditions: Klebsiella pneumoniae
S. maltophilia = test: MIC assay; conditions: Stenotrophomonas maltophilia
B. cepacia = test: MIC assay; conditions: Burkholderia cepacia

For `C[C@@H](O)[C@H]1C(=O)N2C(C(=O)O)=C(S[C@@H]3CN[C@H](C(=O)N(C)C)C3)[C@H](C)[C@H]12` [MPM, meropenem], which MIC90 (A. baumannii) is on record?
Its MIC90 is 32 µg/mL (≈ 83.4 µM).

And the MIC90 (P. aeruginosa)?
Its MIC90 is over 64 µg/mL.

And the MIC90 (K. pneumoniae)?
Its MIC90 is 32 µg/mL (≈ 83.4 µM).

What about the MIC90 (S. maltophilia) of the same molecule?
Its MIC90 is over 64 µg/mL.

What about the MIC90 (B. cepacia) of the same molecule?
Its MIC90 is 8 µg/mL (≈ 20.9 µM).
